Source: patent EP3772943B1, “FORMULATION OF INSECTICIDAL MIXTURES WITH PROPYLENE CARBONATE” (Bayer Aktiengesellschaft, priority 2018, dated 2019)

Tested on: enzymatisch isolierte Kutikeln von Apfelbaumblättern
Assay: Cuticle penetration test in diffusion cells with HPLC read-out (Beispiel V)
Type: in vitro ADME, Apfelbäumen
Details: active substances without additives and in presence of propylene carbonate (Tabelle V, Eintrag 1,2)
Description: In diesem Test wird die Penetration von Wirkstoffen durch enzymatisch isolierte Kutikeln von Apfelbaumblättern gemessen.
Verwendet werden Blätter, die in voll entwickeltem Zustand von Apfelbäumen abgeschnitten werden und nach der Methode beschrieben bei Schönherr und Riederer isoliert (Schönherr, J., Riederer, M. (1986)). Es werden nur die von Spaltöffnungen und Haaren freien Kutikeln der Blattoberseiten weiter verwendet. Die so gewonnenen Kutikularmembranen werden für Membran-Transport-Untersuchungen in Diffusionszellen (=Transportkammern) aus Edelstahl eingelegt. Dazu werden die Kutikeln mit einer Pinzette mittig auf die mit Silikonfett bestrichenen Ränder der Diffusionszellen plaziert und mit einem ebenfalls gefetteten Ring verschlossen. Die Anordnung ist so gewählt, dass die morphologische Außenseite der Kutikeln nach außen, also zur Luft, gerichtet ist, während die ursprüngliche Innenseite dem Inneren der Diffusionszelle zugewandt ist. Die Diffusionszellen sind mit Wasser bzw. mit einem Gemisch aus Wasser und Lösungsmittel gefüllt und auf des physiologisch relevante pH von 5.5 gepuffert. Das Medium der Diffusionszellen soll das Apoplast, also das natürliche Aufnahmemdium im inneren des Blattes nachstellen. […]

`O=C1C=C(N(Cc2ccc(Cl)nc2)CC(F)F)CO1` [Flupyradifurone] was tested, and the Kutikelpenetration was “keine oder kaum Kutikelpenetration”.
